Reference: the supplement of paper PMC10307832

Key:
Assay in all cases: relative viability (nuclei count vs DMSO), 5 days (fraction); higher = more cells survive
Alisertib + Palbociclib = compound: COc1cc(Nc2ncc3c(n2)-c2ccc(Cl)cc2C(c2c(F)cccc2OC)=NC3)ccc1C(=O)O [Alisertib] + CC(=O)c1c(C)c2cnc(Nc3ccc(N4CCNCC4)cn3)nc2n(C2CCCC2)c1=O [Palbociclib] (partner 0.5 µM)
Method in brief: (§1)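 Relative viability equals treated-well nuclei counts divided by vehicle-well nuclei counts. Counts came from 4× images of lung cancer cell lines grown in 1536-well plates for 5 days after pin-tool dosing on the day after seeding. Dosing used one drug alone or a fixed anchor-drug dose plus five library-drug doses (not always all listed) in √10 steps, and values are medians of duplicate plates.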

Alisertib + Crizotinib = compound: COc1cc(Nc2ncc3c(n2)-c2ccc(Cl)cc2C(c2c(F)cccc2OC)=NC3)ccc1C(=O)O [Alisertib] + C[C@@H](Oc1cc(-c2cnn(C3CCNCC3)c2)cnc1N)c1c(Cl)ccc(F)c1Cl [Crizotinib] (partner 1 µM)
Method in brief: as §1

Alisertib + AZD7762 = compound: COc1cc(Nc2ncc3c(n2)-c2ccc(Cl)cc2C(c2c(F)cccc2OC)=NC3)ccc1C(=O)O [Alisertib] + NC(=O)Nc1cc(-c2cccc(F)c2)sc1C(=O)N[C@H]1CCCNC1 [AZD7762] (partner 0.2 µM)
Method in brief: as §1

Alisertib + Vorinostat = compound: COc1cc(Nc2ncc3c(n2)-c2ccc(Cl)cc2C(c2c(F)cccc2OC)=NC3)ccc1C(=O)O [Alisertib] + O=C(CCCCCCC(=O)Nc1ccccc1)NO [Vorinostat] (partner 1 µM)
Method in brief: as §1

Cell Line | relative viability (Alisertib + Palbociclib; first compound 0.005 µM) | relative viability (Alisertib + Palbociclib; first compound 0.01581 µM) | relative viability (Alisertib + Palbociclib; first compound 0.05 µM) | relative viability (Alisertib + Palbociclib; first compound 0.1581 µM) | relative viability (Alisertib + Palbociclib; first compound 0.5 µM) | relative viability (Alisertib + Crizotinib; first compound 0.005 µM) | relative viability (Alisertib + Crizotinib; first compound 0.01581 µM) | relative viability (Alisertib + Crizotinib; first compound 0.05 µM) | relative viability (Alisertib + Crizotinib; first compound 0.1581 µM) | relative viability (Alisertib + Crizotinib; first compound 0.5 µM) | relative viability (Alisertib + AZD7762; first compound 0.005 µM) | relative viability (Alisertib + AZD7762; first compound 0.01581 µM) | relative viability (Alisertib + AZD7762; first compound 0.05 µM) | relative viability (Alisertib + AZD7762; first compound 0.1581 µM) | relative viability (Alisertib + AZD7762; first compound 0.5 µM) | relative viability (Alisertib + Vorinostat; first compound 0.005 µM) | relative viability (Alisertib + Vorinostat; first compound 0.01581 µM) | relative viability (Alisertib + Vorinostat; first compound 0.05 µM) | relative viability (Alisertib + Vorinostat; first compound 0.1581 µM) | relative viability (Alisertib + Vorinostat; first compound 0.5 µM)
HOP-62 | 0.431 | 0.489 | 0.233 | 0.188 | 0.14 | 0.833 | 0.743 | 0.232 | 0.212 | 0.104 | 0.447 | 0.412 | 0.268 | 0.158 | 0.0945 | 0.497 | 0.443 | 0.174 | 0.102 | 0.138
LC-2-ad | 0.413 | 0.459 | 0.282 | 0.276 | 0.21 | 0.369 | 0.378 | 0.266 | 0.353 | 0.202 | 0.768 | 0.5 | 0.224 | 0.185 | 0.15 | 0.454 | 0.313 | 0.24 | 0.177 | 0.161
LCLC-97TM1 | 0.222 | 0.215 | 0.127 | 0.0905 | 0.0969 | 0.334 | 0.298 | 0.138 | 0.128 | 0.152 | 0.192 | 0.307 | 0.207 | 0.103 | 0.0633 | 0.524 | 0.515 | 0.135 | 0.0952 | 0.0792
LCLC-103H | 0.44 | 0.485 | 0.385 | 0.335 | 0.4 | 1.04 | 1.04 | 0.719 | 0.374 | 0.412 | 0.711 | 0.767 | 0.764 | 0.41 | 0.322 | 0.67 | 0.561 | 0.352 | 0.323 | 0.396
LK-2 | 0.684 | 0.67 | 0.403 | 0.178 | 0.148 | 0.226 | 0.232 | 0.224 | 0.233 | 0.288 | 0.321 | 0.382 | 0.205 | 0.153 | 0.14 | 0.229 | 0.326 | 0.167 | 0.176 | 0.186
LOU-NH91 | 0.505 | 0.529 | 0.511 | 0.501 | 0.397 | 0.76 | 0.705 | 0.494 | 0.463 | 0.424 | 0.759 | 0.721 | 0.585 | 0.436 | 0.393 | 0.834 | 0.821 | 0.602 | 0.422 | 0.371
LU99A | 0.386 | 0.418 | 0.189 | 0.185 | 0.174 | 0.513 | 0.451 | 0.245 | 0.217 | 0.182 | 0.502 | 0.296 | 0.158 | 0.131 | 0.136 | 0.467 | 0.428 | 0.177 | 0.16 | 0.187
LXF-289 | 0.571 | 0.527 | 0.267 | 0.204 | 0.181 | 0.762 | 0.443 | 0.204 | 0.186 | 0.178 | 0.922 | 0.637 | 0.682 | 0.163 | 0.138 | 0.587 | 0.493 | 0.189 | 0.139 | 0.188
NCI-H23 | 0.476 | 0.442 | 0.319 | 0.205 | 0.203 | 0.427 | 0.367 | 0.202 | 0.179 | 0.187 | 0.194 | 0.139 | 0.127 | 0.135 | 0.0999 | 0.456 | 0.24 | 0.132 | 0.153 | 0.149
NCI-H322M | 0.473 | 0.475 | 0.477 | 0.413 | 0.417 | 0.809 | 0.777 | 0.431 | 0.498 | 0.313 | 0.435 | 0.565 | 0.47 | 0.393 | 0.395 | 0.806 | 0.864 | 0.772 | 0.502 | 0.514
NCI-H358 | 0.111 | 0.117 | 0.104 | 0.0711 | 0.0985 | 0.632 | 0.358 | 0.193 | 0.188 | 0.186 | 0.424 | 0.433 | 0.183 | 0.175 | 0.165 | 0.551 | 0.449 | 0.105 | 0.1 | 0.0875
NCI-H441 | 0.182 | 0.225 | 0.117 | 0.125 | 0.123 | 0.626 | 0.555 | 0.131 | 0.178 | 0.136 | 0.927 | 0.977 | 0.471 | 0.243 | 0.199 | 0.692 | 0.723 | 0.373 | 0.217 | 0.185
NCI-H460 | 0.143 | 0.13 | 0.123 | 0.0185 | 0.0401 | 0.847 | 0.731 | 0.0614 | 0.0166 | 0.0164 | 0.66 | 0.667 | 0.232 | 0.0611 | 0.0558 | 0.683 | 0.527 | 0.0348 | 0.039 | 0.0281
NCI-H647 | 0.282 | 0.332 | 0.161 | 0.0956 | 0.0773 | 0.91 | 0.625 | 0.241 | 0.193 | 0.109 | 0.314 | 0.367 | 0.103 | 0.0861 | 0.0503 | 0.49 | 0.156 | 0.106 | 0.112 | 0.0745
NCI-H1648 |  | 0.265 | 0.22 | 0.258 | 0.239 |  |  |  |  |  |  | 0.654 | 0.62 | 0.314 | 0.223 |  | 0.22 | 0.315 | 0.235 | 0.236
NCI-H1793 | 0.332 | 0.3 | 0.273 | 0.215 | 0.234 |  |  |  |  |  | 0.327 | 0.166 | 0.215 | 0.148 | 0.115 | 0.465 | 0.41 | 0.267 | 0.191 | 0.221
NCI-H2342 | 0.539 | 0.533 | 0.509 | 0.348 | 0.415 |  |  |  |  |  | 0.565 | 0.43 | 0.347 | 0.352 | 0.414 | 0.65 | 0.662 | 0.61 | 0.464 | 0.397
